Experimental data as given in US5112820A, “Anti-glaucoma compositions containing 2- and 3-aminomethyl-6-arylcarbonyl- or 6-phenylthio-2,3-dihydropyrrolo-(1,2,3-de)-1,4-benzoxazines and method of use thereof” (Sterling Drug Inc., priority 1990, dated 1992).
Like-named read-outs stand apart in the source and are kept apart here.

Experiments:
[1] = target: T1, cannabinoid receptor (CP 55940 binding sites) (Rattus norvegicus, UniProt P20272); test: CP55940 binding assay (CP)
T1 construct: from tissue; host or cells: rat brain membranes (inferred from the cited Devane et al. 1988)

mouse vas deferens = mouse vas deferens adrenergic transmission test (MVD); assay type: cell-based; conditions: for IC50: inhibition of contractions in the MVD preparation in vitro, active at IC50 of 5.0 μM or less; for inhibition at 10 µM: read-out: MVD percent inhibition at a given dose level
Text: Med. Assoc. 217, 1392 (1971)]. […] Opth. 7, 921-923 (1975); Green and Pederson, Effect of delta-9 Tetrahydrocannabinol on Aqueous Dynamics and Ciliary Body Permeability in the Rabbit Eye., Exptl. Eye Research 15, 499-507 (1973); Colasanti, Craig and Allara, Intraocular Pressure, Ocular Toxicity and Neurotoxicity after Administration of Cannabinol or Cannabigerol, Exptl. Eye Research 39, 252-259 (1984)]. Similarly, synthetic cannabinoids also reduce intraocular pressure [Green, Symunds, Oliver and Elijah, Intraocular Pressure Following Systemic Administration of Cannabinoids., Curr. […] Cannabinoid receptor binding sites can be defined as those to which radio-labelled 4-(1,1-dimethyl-heptyl)-2,3'-dihydroxy-6'alpha-(3-hydroxypropyl)-1',2',3',4',-5',6'-hexahydrobiphenyl (CP 55940) binds in a specific and saturable manner and the binding sites are heterogeneously distributed in the brain [Devane, Dysarz, Johnson, Melvin and Howlett, Determination and Characterization of a Cannabinoid Receptor in Rat Brain, Molecular Pharm 34, 605-613 (1988)]. Natural and synthetic cannabinoids and representative examples of the compounds of the present invention bind to CP 55940 binding sites. […] It is believed that agonist activity at the cannabinoid receptor mediates the anti-glaucoma actions of cannabinoids, and that agonist activity at this receptor correlates with ocular pressure lowering actions in man.
The compounds are identified by the Example or the Preparation number above where their preparations are described.

[2] = smoking (marijuana, man); topical application or systemic injection (delta-9 tetrahydrocannabinol; cited studies in man and rabbit); cited from earlier work

T1 sequence (P20272 whole entry): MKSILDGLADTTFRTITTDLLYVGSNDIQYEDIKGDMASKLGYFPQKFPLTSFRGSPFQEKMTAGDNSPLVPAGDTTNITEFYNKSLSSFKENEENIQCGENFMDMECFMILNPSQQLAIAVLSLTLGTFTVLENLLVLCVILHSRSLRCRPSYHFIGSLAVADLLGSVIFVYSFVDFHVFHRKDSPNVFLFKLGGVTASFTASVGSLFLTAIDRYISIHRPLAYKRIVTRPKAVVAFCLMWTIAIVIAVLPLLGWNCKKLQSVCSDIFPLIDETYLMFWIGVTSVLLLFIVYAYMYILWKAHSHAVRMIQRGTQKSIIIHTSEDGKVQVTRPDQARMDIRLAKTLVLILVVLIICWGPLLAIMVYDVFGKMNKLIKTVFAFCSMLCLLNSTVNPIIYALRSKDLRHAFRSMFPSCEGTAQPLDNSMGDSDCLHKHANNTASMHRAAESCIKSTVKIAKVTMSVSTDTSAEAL

`Cc1c(C(=O)c2cccc3ccccc23)c2cccc3c2n1CC(CN1CCOCC1)O3` (centres unmarked) [Ex. 2I, 2-(4-morpholinylmethyl)-5-methyl-6-(1-naphthylcarbonyl)2,3-dihydropyrrolo[1,2,3-de]-1,4-benzoxazine] gave an IC50 ([1]; CP IC50, CP55940 binding) of about 10 nM.

For `Cc1c(Sc2ccccc2)c2cccc3c2n1C(CN1CCOCC1)CO3` (single isomer, unassigned; (+)) [Prep. 4B (d)], the IC50 (mouse vas deferens) was 70 nM.

`Cc1c(C(=O)c2cccc3ccccc23)c2cccc3c2n1C(CN1CCOCC1)CO3` (single isomer, unassigned; (-)) [Ex. 2B (1), (-)-3-(4-morpholinylmethyl)-5-methyl-6-(1-naphthylcarbonyl)-2,3-dihydropyrrolo[1,2,3-de]-1,4-benzoxazine methanesulfonate] gave an inhibition at 10 µM (mouse vas deferens; Mus musculus) of 37%.

`CCc1c(C(=O)c2ccc(OC)cc2)c2cccc3c2n1C(CN1CCOCC1)CO3` (centres unmarked) [Ex. 2A] showed an inhibition at 10 µM (mouse vas deferens; Mus musculus) of 27%.

`Cc1c(C(=O)c2cccc3c(Br)cc(Br)cc23)c2cccc3c2n1C(CN1CCOCC1)CO3` (single isomer, unassigned; (-)) [Ex. 1E, (-)-3-(4-morpholinylmethyl)-5-methyl-6-(5,7-dibromonaphthylcarbonyl)-2,3-dihydropyrrolo[1,2,3-de]-1,4-benzoxazine methanesulfonate] gave an IC50 (mouse vas deferens; methanesulfonate) of 2620 ± 1700 nM.

With `Cc1c(Sc2ccccc2)c2cccc3c2n1C(CN1CCOCC1)CO3` (single isomer, unassigned; (-)) [Prep. 4B (1)] the IC50 (mouse vas deferens) was 690 nM.

With `Cc1c(Sc2ccccc2)c2cccc3c2n1C(CN1CCOCC1)CO3` (centres unmarked) [Prep. 4A (d,1)] the IC50 (mouse vas deferens; Mus musculus) was over 10000 nM.

`COc1ccc(C(=O)c2c(C)n3c4c(cccc24)OCC3CN2CCOCC2)cc1` (single isomer, unassigned; (+)) [Ex. 2H (d)] gave an IC50 ([1]; CP55940 binding, read-out: CP IC50) of 199 nM.

`COc1ccc(C(=O)c2c(C)n3c4c(cccc24)OCC3CN2CCOCC2)cc1` (single isomer, unassigned; (-)) [Ex. 2H (1)] gave an inhibition at 10 µM (mouse vas deferens; Mus musculus) of 44%.

For `Cc1c(C(=O)c2cccc3ccccc23)c2cccc3c2n1C(CN1CCOCC1)CO3` (single isomer, unassigned; (+)) [Ex. 2B (d), (+)-3-(4-morpholinylmethyl)-5-methyl-6-(1-naphthylcarbonyl)-2,3-dihydropyrrolo[1,2,3-de]-1,4-benzoxazine methanesulfonate], the IC50 (mouse vas deferens; methanesulfonate) was 43 ± 0.1 nM.

In the case of `CCCCCc1cc(O)c2c(c1)OC(C)(C)[C@@H]1CCC(C)=C[C@@H]21` [delta-9 tetrahydrocannabinol], the “effect on intraocular pressure” value [2] is given as “reduces intraocular pressure”.
